According to US4533670A, “Anti-convulsant fluorenylalkylimidazole derivatives, compositions, and method of use” (Eli Lilly and Company, priority 1983, dated 1985):
Where a name gives a salt, the structure may show the parent alone. Read-outs that look alike come from different tables or passages of the source.

Assays:
[1] = tested on: extensor tonic convulsions; assay: Electroshock induced convulsion inhibition assay; type: in vivo, Cox standard strain albino male mice; conditions: Mus musculus, po, p.o. (gavage), mice, 0.1 second, 50 milliampere corneal electroshock, read-out: ED50 (dose which inhibited extensor tonic convulsions in one half of the animals)
Source text: The compounds of Formula II are anticonvulsant agents with a high therapeutic ratio and long half-life and are therefore useful in the treatment and/or prevention of convulsions in mammals. In particular, the compounds are effective against tonic extensor seizures elicited by maximal electroshock and should therefore be useful for treating generalized tonic-clonic ("grand mal"), cortical focal, complex partial (temporal lobe epilepsy), simple partial (focal motor), and post-traumaticseizures in humans. […] In the electroshock induced convulsion inhibition assay, the compound to be tested was dissolved in water (5%--sufficient hydrochloric acid was added for those compounds which were not isolated as a salt in order to effect dissolution) and administered by gavage to each of three Cox standard strain albino male mice (18-24 g.) at the dose level being investigated. Sixty to 240 minutes after compound administration, the mice were subjected to a 0.1 second, 50 milliampere electroshock through corneal electrodes. The animals were examined and evaluated immediately after the electroshock for the occurrence of clonic, flexor tonic, or extensor tonic convulsions, or death and the ED50 was determined for each compound (for the particular time after administration of the compound) as the dose which inhibited the occurrence of extensor tonic convulsions in one half of the animals immediately after the electroshock. For comparison, 18 milliamperes was usually sufficient to produce extensor tonic convulsions in about half of the control animals; at 50 milliamperes, almost all control animals (receiving vehicle only) died. The test results are summarized in Table I as the ED50 's at the optimal time after compound administration.

seizures = conditions: man; cited from earlier work
[2] = man, cited from earlier work
[3] = 1 h, 60 minutes after administration (optimal time)
[4] = 2 h, 120 minutes after administration (optimal time)

Row | Structure (SMILES) | ED50 [1, 3] [mg/kg] | ED50 [1, 4] [mg/kg] | other results
1 | OC(CCn1ccnc1)c1ccc2c(c1)Cc1ccccc1-2 (stereo not shown) [Example 15, 1-(9H-fluoren-2-yl)-3-(1H-imidazol-1-yl)-1-propanol] | 33 |  | 
2 | Cl.O=C(Cn1ccnc1)c1ccc2c(c1)Cc1cc(Br)ccc1-2 [Example 4, 2-(1H-imidazol-1-yl)-1-(7-bromo-9H-fluoren-2-yl)ethanone hydrochloride] |  | 79 | 
3 | O=C(OC(Cn1ccnc1)c1ccc2c(c1)Cc1ccccc1-2)c1ccccc1 (stereo not shown) [Example 16, 1-(9H-fluoren-2-yl)-2-(1H-imidazol-1-yl)-1-ethanol, benzoate ester hydrochloride] | 32 |  | 
4 | Cl.c1ccc2c(c1)Cc1cc(C3(Cn4ccnc4)OCCCO3)ccc1-2 [Example 21, 1-([2-(9H-fluoren-2-yl)-1,3-dioxan-2-yl]methyl)-1H-imidazole hydrochloride] | 32 |  | 
5 | c1ccc2c(c1)Cc1cc(C3(CCn4ccnc4)OCCO3)ccc1-2 [Example 22, 1-(2-[2-(9H-fluoren-2-yl)-1,3-dioxolan-2-yl]ethyl)-1H-imidazole] | 26 |  | 
6 | CCSC(Cn1ccnc1)c1ccc2c(c1)Cc1ccccc1-2.Cl (stereo not shown) [Example 17, 1-[2-(Ethylthio)-2-(9H-fluoren-2-yl)ethyl]-1H-imidazole hydrochloride] | 44 |  | 
7 | CC1COC(Cn2ccnc2)(c2ccc3c(c2)Cc2ccccc2-3)O1 (stereo not shown) [Example 19, 1-([2-(9H-fluoren-2-yl)-4-methyl-1,3-dioxolan-2-yl]methyl)-1H-imidazole] |  | 21 | 
8 | Cl.O=C(CCn1ccnc1)c1ccc2c(c1)Cc1ccccc1-2 [Example 11, 1-(9H-fluoren-2-yl)-3-(1H-imidazol-1-yl)-1-propanone hydrochloride] | 19 |  | 
9 | CCC(C(=O)c1ccc2c(c1)Cc1ccccc1-2)n1ccnc1.Cl (stereo not shown) [Example 13, 2-(1H-imidazol-1-yl)-1-(9H-fluoren-2-yl)-1-butanone hydrochloride] | 50 |  | 
10 | O=C1NC(=O)C(c2ccccc2)(c2ccccc2)N1 [phenytoin] |  |  | plasma level at which seizures are controlled (seizures): ≥ 10 µg/mL; plasma level at which ataxia is obvious ([2]; ataxia): 30000 ng/mL; plasma level at which lethargy is apparent ([2]; lethargy): about 40 mcg./ml.; plasma level at which nystagmus is seen ([2]; nystagmus): around 20 mcg./ml.
11 | Cl.O=C(Cn1ccnc1)c1cccc2c1-c1ccccc1C2 [Example 10, 1-(9H-fluoren-4-yl)-2-(1H-imidazol-1-yl)ethanone hydrochloride] | 44 |  | 
12 | CC1c2ccccc2-c2ccc(C(=O)Cn3ccnc3)cc21.Cl (stereo not shown) [Example 5, 2-(1H-imidazol-1-yl)-1-(9-methyl-9H-fluoren-2-yl)ethanone hydrochloride] |  | 33 | 
13 | OC(Cn1ccnc1)c1ccc2c(c1)Cc1ccccc1-2 (stereo not shown) [Example 14, 1-(9H-fluoren-2-yl)-2-(1H-imidazol-1-yl)-1-ethanol] | 22 |  | 
14 | Cc1nccn1CC(=O)c1ccc2c(c1)Cc1ccccc1-2.Cl [Example 1, 1-(9H-fluoren-2-yl)-2-(2-methyl-1H-imidazol-1-yl)ethanone hydrochloride] | 210 |  | 
15 | Cl.O=C(Cn1ccnc1)c1ccc2c(c1)Cc1ccccc1-2 [Example 8, 2-(1H-imidazol-1-yl)-1-(9H-fluoren-2-yl)ethanone hydrochloride] |  |  | ED50 ([1]; 3 h, 180 minutes after administration (optimal time)): 25 mg/kg
16 | Cl.O=C(Cn1ccnc1)c1cccc2c1Cc1ccccc1-2 [Example 9, 1-(9H-fluoren-1-yl)-2-(1H-imidazol-1-yl)ethanone hydrochloride] |  | 20 | 
17 | c1ccc2c(c1)Cc1cc(C3(Cn4ccnc4)OCCO3)ccc1-2 [Example 18, 1-([2-(9H-fluoren-2-yl)-1,3-dioxolan-2-yl]methyl)-1H-imidazole] |  |  | ED50 ([1]; 4 h, 240 minutes after administration (optimal time)): 23 mg/kg
18 | CCc1nccn1CC(=O)c1ccc2c(c1)Cc1ccccc1-2 [Example 2, 2-(2-ethyl-1H-imidazol-1-yl)-1-(9H-fluoren-2-yl)ethanone] |  | 188 | 
19 | Cl.c1ccc2c(c1)Cc1cc(C3(Cn4ccnc4)SCCS3)ccc1-2 [Example 23, 1-([2-(9H-fluoren-2-yl)-1,3-dithiolan-2-yl]methyl)-1H-imidazole hydrochloride] |  | 41 | 
20 | CC1(C)c2ccccc2-c2ccc(C(=O)Cn3ccnc3)cc21.Cl [Example 6, 1-(9,9-Dimethyl-9H-fluoren-2-yl)-2-(1H-imidazol-1-yl)ethanone hydrochloride] | 48 |  | 
21 | CC1(C)COC(Cn2ccnc2)(c2ccc3c(c2)Cc2ccccc2-3)OC1 [Example 20, 1-([2-(9H-fluoren-2-yl)-5,5-dimethyl-1,3-dioxan-2yl]methyl)-1H-imidazole] |  | 65 | 
22 | CC(C(=O)c1ccc2c(c1)Cc1ccccc1-2)n1ccnc1.Cl (stereo not shown) [Example 12, 2-(1H-imidazol-1-yl)-1-(9H-fluoren-2-yl)-1-propanone hydrochloride] |  |  | ED50 ([1]; 1.5 h, 90 minutes after administration (optimal time)): 35 mg/kg
23 | Cc1ccc2c(c1)Cc1cc(C(=O)Cn3ccnc3)ccc1-2.Cl [Example 7, 2-(1H-imidazol-1-yl)-1-(7-methyl-9H-fluoren-2-yl)ethanone hydrochloride] |  | 68 | 
24 | Cc1cn(CC(=O)c2ccc3c(c2)Cc2ccccc2-3)cn1.Cl [Example 3, 1-(9H-fluoren-2-yl)-2-(4-methyl-1H-imidazol-1-yl)ethanone hydrochloride] | 90 |  | 
25 | CC(O)(Cn1ccnc1)c1ccc2c(c1)Cc1ccccc1-2 (stereo not shown) [Example 24, 1-(1H-imidazol-1-yl)-2-(9H-fluoren-2-yl)-2-propanol] |  | 14 | 
